We go through 30 compounds from publication PMC3579312 (Journal of Medicinal Chemistry, 2013).

In series [1] the test system is Trypanosoma brucei brucei bloodstream-form (strain 427). The experiment in a line: Trypanocidal activity, Alamar Blue viability, 72 h. The conditions noted are these: for Selectivity Index: HeLa EC50 versus T. brucei EC50; for combined trypanocidal action of 22s with nifurtimox: Figure 4. It counts as cell-based.
Series [2] has as its system 22s-resistant T. brucei. The experiment in a line: Trypanocidal activity against cloned 22s-resistant cell line. The conditions noted are these: 22s in 22s-resistant cells versus nifurtimox in wild-type. It counts as cell-based, Trypanosoma brucei.
For series [3], the system named is human African trypanosomiasis. The conditions noted are these: cited from earlier work.
Series [4] relates to nifurtimox-resistant T. brucei. The series is described as follows: Trypanocidal activity against cloned nifurtimox-resistant cell line. It counts as cell-based, Trypanosoma brucei.
In series [5] the test system is Chagas’ disease. The following applies: patients with Chagas’ disease; cited from earlier work.

“Also recorded” adds a separate entry of the source. Bounds are passed on as bounds.

In the case of `CCOC(=O)c1cc(CC)sc1NC(=O)c1ccc([N+](=O)[O-])o1` [Compound 12a, Ethyl 5-Ethyl-2-(5-nitrofuran-2-carboxamido)thiophene-3-carboxylate], the “Selectivity Index” value in series [1] is over 640.
Same read-out and setting: in the case of `CCCCc1cc(C(=O)OCC)c(NC(=O)c2ccc([N+](=O)[O-])o2)s1` [Compound 12b] it was over 160.
As for `CCCCOC(=O)c1cc(CC)sc1NC(=O)c1ccc([N+](=O)[O-])o1` [Compound 12d], the “Selectivity Index” value in series [1] is given as over 625.
Same read-out and setting: in the case of `CCNC(=O)c1cc(CC)sc1NC(=O)c1ccc([N+](=O)[O-])o1` [Compound 12e] it was over 136.
As for `CCCCNC(=O)c1cc(CC)sc1NC(=O)c1ccc([N+](=O)[O-])o1` [Compound 12f], the “Selectivity Index” value in series [1] is over 60.
Still for that read-out and setting: in the case of `CCc1cc(C(N)=O)c(NC(=O)c2ccc([N+](=O)[O-])o2)s1` [Compound 12g, N-(3-Carbamoyl-5-ethylthiophen-2-yl)-5-nitrofuran-2-carboxamide] it was over 1155; in that of `CCc1cc(C(=O)NCCO)c(NC(=O)c2ccc([N+](=O)[O-])o2)s1` [Compound 12h], over 253; in that of `O=C(Nc1cccs1)c1ccc([N+](=O)[O-])o1` [Compound 12j], over 322.
Consider `CCOC(=O)c1ccsc1NC(=O)c1ccc([N+](=O)[O-])o1` [Compound 12k], for which the “Selectivity Index” value in series [1] is recorded as over 278.
Turning to `CCc1cc(C(N)=O)c(N)s1` [Compound 13g], in series [1], the “activity against T. brucei (in words)” value was “inactive”.
On the same count and under the same terms, in the case of `CCOC(=O)c1cc(CC)sc1NC(=O)c1ccco1` [Compound 18a] it was “no activity”; in that of `COC(=O)c1ccc([N+](=O)[O-])o1` [Compound 19], “inactive”.
Turning to `CCc1cc(C(N)=O)c(NC(=O)c2cccc([N+](=O)[O-])c2)s1` [Compound 20b], the “Selectivity Index” value in series [1] is over 8.
The same measure, in the same setting: in the case of `O=C(Nc1ccccc1)c1ccc([N+](=O)[O-])o1` [Compound 22b] it was over 710.
On the same count and under the same terms, with `O=C(Nc1cccc(Br)c1)c1ccc([N+](=O)[O-])o1` [Compound 22f] the figure was over 192; with `COc1cccc(NC(=O)c2ccc([N+](=O)[O-])o2)c1` [Compound 22g], over 345; with `O=C(Nc1ccc(C(F)(F)F)cc1)c1ccc([N+](=O)[O-])o1` [Compound 22h, 5-Nitro-N-(4-(trifluoromethyl)phenyl)furan-2-carboxamide], over 158.
For `O=C(Nc1ccc(Cl)cc1)c1ccc([N+](=O)[O-])o1` [Compound 22i], the “Selectivity Index” value in series [1] was over 48.
The same measure, in the same setting: in the case of `COC(=O)c1ccc(NC(=O)c2ccc([N+](=O)[O-])o2)cc1` [Compound 22j] it was over 29.
On the same count and under the same terms, with `COc1ccc(NC(=O)c2ccc([N+](=O)[O-])o2)cc1` [Compound 22k] the figure was over 261; with `O=C(NCc1cccc(C(F)(F)F)c1)c1ccc([N+](=O)[O-])o1` [Compound 22l, 5-nitro-N-(3-(trifluoromethyl)benzyl)furan-2-carboxamide], over 1149.
Same read-out and setting: in the case of `COc1cc(NC(=O)c2ccc([N+](=O)[O-])o2)cc(C(F)(F)F)c1` [Compound 22m] it was over 752.
In the case of `O=C(Nc1cc(C(F)(F)F)cc(C(F)(F)F)c1)c1ccc([N+](=O)[O-])o1` [Compound 22n], the “Selectivity Index” value in series [1] is listed as over 78.
Same read-out and setting: in the case of `O=C(Nc1ccc(O)cc1)c1ccc([N+](=O)[O-])o1` [Compound 22p] it was over 50.
The same measure, in the same setting: in the case of `O=C(Nc1ccc(O)c(C(F)(F)F)c1)c1ccc([N+](=O)[O-])o1` [Compound 22r] it was over 9.
In the case of `C=CCOc1ccc(NC(=O)c2ccc([N+](=O)[O-])o2)cc1C(F)(F)F` [Compound 22s, N-(4-(Allyloxy)-3-(trifluoromethyl)phenyl)-5-nitrofuran-2-carboxamide], in series [1], the “Selectivity Index” value was over 8330. For the same compound, the “combined trypanocidal action of 22s with nifurtimox” value in series [1] (nifurtimox <700 nM, EC50 of 22s) is reported as “synergy can be observed; also recorded: synergistic relationship”; in series [1] (nifurtimox above 700 nM), “distinct lack of synergy”. In addition, the “potency in 22s-resistant cells relative to nifurtimox in wild-type T. brucei” value in series [2] is listed as about 70 times.
Consider `C=CCOc1ccc(N(CC=C)C(=O)c2ccc([N+](=O)[O-])o2)cc1C(F)(F)F` [Compound 22t], for which, in series [1], the “Selectivity Index” value is given as over 9.
Same read-out and setting: in the case of `COc1ccc(NC(=O)c2ccc([N+](=O)[O-])o2)cc1C` [Compound 22v] it was over 525.
For the compound `Nc1nc(N)nc(Nc2ccc([As]3SCC(CO)S3)cc2)n1` (stereo not shown) [Melarsoprol (3), melarsoprol], the “death, share of cases” value in series [3] (HAT patients) was about 6%. The treatment failure rate in series [3] (in certain areas) is reported as at most 30%.
As for `CC1CS(=O)(=O)CCN1/N=C/c1ccc([N+](=O)[O-])o1` (stereo not shown) [Nifurtimox (5), Nifurtimox], the EC50 in series [1] (read-out: T. brucei EC50, wild-type bloodstream form, 72 h) is 2.1 ± 0.2 µM; in series [4] (Trypanosoma brucei, read-out: EC50, nifurtimox resistant cells) it was 20.9 ± 1.7 µM. The “fold increase in EC50 (less sensitive) versus wild-type cells” value in series [4] (nifurtimox-resistant versus wild-type) was 9–10 fold. Also, the “treatment cessation due to adverse side effects, share of patients” value in series [5] is “over 30%”.
